{"source": "ChEMBL document CHEMBL5385859", "about": "“Research progress and challenges of TRPV1 channel modulators as a prospective therapy for diabetic neuropathic pain” (Eur J Med Chem, 2023)", "key": {"[1]": {"experiment": "Lipophilicity, log P of the compound in PBS buffer", "assay_type": "physicochemical"}, "[2]": {"system": "Mus musculus", "experiment": "Analgesic activity in CCI-induced neuropathic pain mouse model assessed as increase in mechanical paw withdrawal threshold at 5 mg/kg,ip administration measured after 30 mins by von frey test", "assay_type": "functional, organism-based", "conditions": "0.5 h"}, "[3]": {"target": "T1, Transient receptor potential cation channel subfamily V member 1 (Homo sapiens, UniProt Q8NER1)", "T1 sequence (Q8NER1 whole entry)": "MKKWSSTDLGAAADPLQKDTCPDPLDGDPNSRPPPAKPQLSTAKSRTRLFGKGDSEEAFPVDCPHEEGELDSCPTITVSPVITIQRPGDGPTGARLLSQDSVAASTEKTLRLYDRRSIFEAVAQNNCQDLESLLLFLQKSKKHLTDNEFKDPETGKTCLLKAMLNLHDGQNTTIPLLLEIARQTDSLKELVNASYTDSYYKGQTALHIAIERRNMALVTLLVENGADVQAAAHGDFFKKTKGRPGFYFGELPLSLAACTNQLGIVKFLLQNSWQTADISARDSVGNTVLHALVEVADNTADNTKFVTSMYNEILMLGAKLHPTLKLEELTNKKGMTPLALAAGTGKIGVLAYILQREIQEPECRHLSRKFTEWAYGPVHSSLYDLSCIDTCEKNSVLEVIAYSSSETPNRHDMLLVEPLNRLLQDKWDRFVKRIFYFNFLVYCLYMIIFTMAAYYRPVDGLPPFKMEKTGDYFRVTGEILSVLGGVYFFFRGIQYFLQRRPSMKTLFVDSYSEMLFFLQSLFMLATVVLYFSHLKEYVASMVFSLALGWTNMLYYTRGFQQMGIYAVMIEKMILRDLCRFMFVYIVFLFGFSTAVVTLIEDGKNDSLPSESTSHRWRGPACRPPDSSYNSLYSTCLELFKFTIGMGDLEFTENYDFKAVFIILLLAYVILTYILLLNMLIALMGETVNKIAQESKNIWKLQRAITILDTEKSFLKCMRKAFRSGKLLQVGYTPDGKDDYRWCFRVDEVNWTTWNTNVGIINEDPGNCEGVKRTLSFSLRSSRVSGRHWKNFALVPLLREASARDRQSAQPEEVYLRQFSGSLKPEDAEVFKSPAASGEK", "experiment": "Antagonist activity at TRPV1 (unknown origin)"}, "[4]": {"experiment": "Lipophilicity, […] of the compound at pH 6.5", "assay_type": "physicochemical", "conditions": "buffer"}, "[5]": {"species": "Mus musculus", "experiment": "Analgesic activity in CCI-induced neuropathic pain in wild type C57BL/6 mouse model assessed as reduction in paw threshold pain measured after 2 hrs", "assay_type": "functional"}, "[6]": {"target": "T1, Transient receptor potential cation channel subfamily V member 1", "experiment": "Inhibition of TRPV1 (unknown origin)"}, "[7]": {"target": "T1, Transient receptor potential cation channel subfamily V member 1", "experiment": "Activation of human TRPV1 expressed in HEK293F cells", "assay_type": "cell-based"}, "[8]": {"target": "T1, Transient receptor potential cation channel subfamily V member 1", "experiment": "Antagonist activity at human recombinant TPRV1"}, "[9]": {"target": "T1, Transient receptor potential cation channel subfamily V member 1", "experiment": "Agonist activity at human TRPV1 overexpressed in HEK293 cells incubated for 1 hr by Fluo-4 AM dye based microscopic analysis", "assay_type": "cell-based"}, "[10]": {"target": "T1, Transient receptor potential cation channel subfamily V member 1", "experiment": "Binding affinity to human TRPV1 assessed as inhibition constant by SPR analysis"}}, "data": [{"compound": "CC(C)=CCCC1(C)CC1CO", "note": "(centres undefined)", "values": [{"measurement": "logP", "setting": "[1]", "value": 2.5}]}, {"compound": "C=C(C)[C@]12C[C@@H](C)[C@@]34O[C@](Cc5ccccc5)(O[C@@H]1[C@@H]3C=C(COC(=O)Cc1ccc(O)c(OC)c1)C[C@]1(O)C(=O)C(C)=C[C@@H]41)O2", "note": "[RESINIFERATOXIN]", "values": [{"measurement": "EC50", "setting": "[2]", "value": 920, "unit": "nM"}]}, {"compound": "CC(C)(C)c1ccc(CNC(=S)NCc2ccc(NS(C)(=O)=O)c(F)c2)cc1", "values": [{"measurement": "IC50", "setting": "[3]", "value": 8, "unit": "nM"}]}, {"compound": "O=C(Nc1ccccc1Br)N[C@@H]1CCN(c2ccc(C(F)(F)F)cn2)C1", "note": "[SB-705498]", "values": [{"measurement": "logD", "setting": "[4]", "value": 3.98}, {"measurement": "Activity", "setting": "[5]", "value": 8.8, "unit": "nM"}]}, {"compound": "CC(C)(O)c1ccccc1-c1ccc2[nH]c(/C=C/c3ccc(C(F)(F)F)cc3)nc2c1", "values": [{"measurement": "logD", "setting": "[4]", "value": 6.27}]}, {"compound": "O=C(Nc1ccc(C(F)(F)F)cn1)N1CC=C(c2ncc([C@H](O)CO)cc2Cl)CC1", "values": [{"measurement": "logD", "setting": "[4]", "value": 2.11}]}, {"compound": "CC(C)c1cccc(C(C)C)c1O", "note": "[PROPOFOL]", "values": [{"measurement": "IC50", "setting": "[6]", "value": 5.05, "unit": "nM"}, {"measurement": "logP", "setting": "[1]", "value": 4.15}]}, {"compound": "CC(C)c1nc2cc(O)ccc2c(=O)n1-c1ccc(C#N)cc1", "values": [{"measurement": "logD", "setting": "[4]", "value": 3.45}]}, {"compound": "CCCc1nc(C(F)(F)F)ccc1/C=C/C(=O)N[C@H](C)c1cc(F)c(NS(C)(=O)=O)c(F)c1", "values": [{"measurement": "logD", "setting": "[4]", "value": 3.67}]}, {"compound": "CC(C)(C)c1ccc(CNC(=S)NCc2ccc(NS(C)(=O)=O)cc2)cc1", "values": [{"measurement": "IC50", "setting": "[3]", "value": 0.11, "unit": "nM"}]}, {"compound": "CC(C)(C)c1ccc2c(c1)CC[C@H]2NC(=O)Nc1cccc2[nH]ncc12", "note": "[ABT-102]", "values": [{"measurement": "logD", "setting": "[4]", "value": 4.59}]}, {"compound": "COc1cc(C/N=C(\\S)NCc2ccc(Cl)cc2)cc(I)c1O", "values": [{"measurement": "IC50", "setting": "[3]", "value": 106, "unit": "nM"}]}, {"compound": "O=C(Nc1cccc2cnccc12)N1CCC[C@H]1CNc1ccc(Br)cc1", "values": [{"measurement": "IC50", "setting": "[7]", "value": 84, "unit": "nM"}]}, {"compound": "CNCC1CCCCN1C(=O)Oc1ccc(CNC(=O)CCCC/C=C/C(C)C)cc1OC", "note": "(centres undefined) [VOCACAPSAICIN]", "values": [{"measurement": "logP", "setting": "[1]", "value": 4.32}]}, {"compound": "C[C@H](NC(=O)Cn1cnc2ccc(F)c(F)c21)c1ccc(C(C)(C)C)cc1", "values": [{"measurement": "logD", "setting": "[4]", "value": 4.34}, {"measurement": "IC50", "setting": "[8]", "value": 5, "unit": "nM"}]}, {"compound": "Cc1ccc(N2c3cccc(C(=O)Nc4ccc(OCC(F)(F)F)nc4)c3OC[C@@H]2CO)nc1", "note": "[JTS-653]", "values": [{"measurement": "logD", "setting": "[4]", "value": 3.83}, {"measurement": "IC50", "setting": "[8]", "value": 236, "unit": "nM"}]}, {"compound": "CC(=O)Nc1nc2c(Oc3cc(-c4ccc(C(F)(F)F)cc4)ncn3)cccc2s1", "note": "[AMG-517]", "values": [{"measurement": "Activity", "setting": "[5]", "value": 760, "unit": "nM"}]}, {"compound": "O=C(Nc1ccc(C(F)(F)F)cc1)N1CC=C(c2ncc([C@H](O)CO)cc2Cl)CC1", "values": [{"measurement": "IC50", "setting": "[9]", "value": 33.8, "unit": "nM"}]}, {"compound": "CC(C)(C)C(=O)OCC(CNC(=S)NCc1ccc(NS(C)(=O)=O)c(F)c1)Cc1ccccc1", "note": "(centres undefined)", "values": [{"measurement": "Ki", "setting": "[10]", "value": 7.8, "unit": "nM"}]}, {"compound": "COc1cc(CNC(=O)CCCC/C=C/C(C)C)ccc1O", "note": "[CAPSAICIN]", "values": [{"measurement": "logP", "setting": "[1]", "value": 3.74}]}]}
